Patent US8258141B2, “Organic compounds” (Novartis AG, priority 2006, dated 2012)
Counter-ions that a name gives are not always drawn.

Biological target: adenosine A2A receptor (Homo sapiens, UniProt P29274)
Test: Adenosine A2A receptor agonist assay, method of L. J. Murphree et al, Molecular Pharmacology 61, 455-462 (2002)
Format: binding
Source text: Compounds of formula (I) and formula (II) and their pharmaceutically acceptable salts are useful as pharmaceuticals. In particular, they activate the adenosine A2A receptor, i.e. they act as A2A receptor agonists.

Chain of adenosine A2A receptor (P29274 whole entry): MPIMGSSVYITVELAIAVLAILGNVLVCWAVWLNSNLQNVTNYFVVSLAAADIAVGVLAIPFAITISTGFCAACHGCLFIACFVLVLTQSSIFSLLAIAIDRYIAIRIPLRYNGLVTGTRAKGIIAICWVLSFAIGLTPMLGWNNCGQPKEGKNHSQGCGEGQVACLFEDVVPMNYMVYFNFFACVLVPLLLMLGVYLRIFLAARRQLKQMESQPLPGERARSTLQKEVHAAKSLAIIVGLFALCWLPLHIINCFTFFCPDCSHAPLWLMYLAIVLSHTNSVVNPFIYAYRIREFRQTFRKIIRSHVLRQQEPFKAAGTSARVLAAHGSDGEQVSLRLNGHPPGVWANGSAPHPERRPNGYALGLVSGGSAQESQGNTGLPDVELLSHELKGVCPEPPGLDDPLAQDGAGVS

Compound	Ki
N[C@@H]1CCN(c2nc(NCC(c3ccccc3)c3ccccc3)c3ncn([C@@H]4C[C@H](NC(=O)CO)[C@@H](O)[C@H]4O)c3n2)C1 [Example 1, N-{(1S,2R,3S,4R)-4-[2-((R)-3-Amino-pyrrolidin-1-yl)-6-(2,2-diphenyl-ethylamino)-purin-9-yl]-2,3-dihydroxy-cyclopentyl}-2-hydroxy-acetamide trifluoroacetate]	8.3 nM
CCC(=O)N[C@H]1C[C@@H](n2cnc3c(NCC(c4ccccc4)c4ccccc4)nc(N4CC[C@@H](NC(=O)N[C@@H]5CCN(C(=O)c6ccc(C(=O)OC)cc6)C5)C4)nc32)[C@H](O)[C@@H]1O [Example 36, 4-[(R)-3-(3-{(R)-1-[9-((1R,2S,3R,4S)-2,3-Dihydroxy-4-propionylamino-cyclopentyl)-6-(2,2-diphenyl-ethylamino)-9H-purin-2-yl]-pyrrolidin-3-yl}-ureido)-pyrrolidine-1-carbonyl]-benzoic acid methyl ester]	3 nM
CCC(=O)N[C@H]1C[C@@H](n2cnc3c(NCC(c4ccccc4)c4ccccc4)nc(N4CC[C@@H](NC(=O)Nc5ccc(OCc6ccccc6)cc5)C4)nc32)[C@H](O)[C@@H]1O [Example 178, N-{(1S,2R,3S,4R)-4-[2-{(R)-3-[3-(4-Benzyloxy-phenyl)-ureido]-pyrrolidin-1-yl}-6-(2,2-diphenyl-ethylamino)-purin-9-yl]-2,3-dihydroxy-cyclopentyl}-propionamide trifluoroacetate]	8 nM

The next lines start with the values.

Ki	Compound
2.5 nM	O=C(CO)N[C@H]1C[C@@H](n2cnc3c(NCC(c4ccccc4)c4ccccc4)nc(C(=O)NCCNC(=O)NC4CCN(c5ccccn5)CC4)nc32)[C@H](O)[C@@H]1O [Example 14, 9-[(1R,2S,3R,4S)-2,3-Dihydroxy-4-(2-hydroxy-acetylamino)-cyclopentyl]-6-(2,2-diphenyl-ethylamino)-9H-purine-2-carboxylic acid {2-[3-(3,4,5,6-tetrahydro-2H-[1,2′]bipyridinyl-4-yl)-ureido]-ethyl}-amide trifluoroacetate]
1.6 nM	CCC(=O)N[C@H]1C[C@@H](n2cnc3c(NCC(c4ccccc4)c4ccccc4)nc(N4CC[C@@H](NC(=O)NCc5ccncc5)C4)nc32)[C@H](O)[C@@H]1O [Example 20, N-((1S,2R,3S,4R)-4-{6-(2,2-diphenyl-ethylamino)-2-[(R)-3-(3-pyridin-4-ylmethyl-ureido)-pyrrolidin-1-yl]-purin-9-yl}-2,3-dihydroxy-cyclopentyl)-propionamide trifluoroacetate]
